Measurements: patent publication US11298561B2, “Method of treating multi-drug resistance biofilm using targeted laser and antibiotics” (priority 2013, dated 2022)
Values joined by “and” are separate entries in the source; they are usually repeats but may differ in a detail not shown here. Equal values may be shown once. Read-outs that look alike come from different tables or passages of the source.

Columns and labels:
[1] = system: P. aeruginosa PA 60-65 biofilms; test: CFU assay of P. aeruginosa PA 60-65 biofilms; format: cell-based, Pseudomonas aeruginosa; settings: for reduction in P. aeruginosa biofilm viability (CFU): 24 h
Description: (§1) Two MDR clinical wound isolates, namely, methicillin-resistant S. aureus (MRSA) SA5120 and P. aeruginosa PA 60-65, were received as gifts from a repository at the U.S. Army Institute of Surgical Research (JBSA-Fort Sam Houston, Tex.). Biofilms were established on 5-mm glass discs or in 96-well half-area glass-bottom plates that had been pre-treated for 24 h with 1 mg/mL of fibrinogen. Overnight cultures of SA5120 in tryptic soy broth (TSB) were diluted to an optical density at 600 nm (OD600) of 0.1 using TSB supplemented with 10% human plasma, added to empty wells of a 96-well glass-bottom culture plate or to wells containing 5-mm glass discs, and allowed to grow into biofilms for 24 h at 37° C. under static conditions. For PA 60-65, overnight cultures in brain heart infusion broth (BHI) were diluted 20-fold using 20% BHI in phosphate-buffered saline (PBS) supplemented with 0.2% glucose and 0.4% NaCl and grown to an OD600 of 0.5 at 37° C. with shaking at 250 rpm. The bacterial suspension was diluted to an OD600 of 0.01 in PBS, and 20 μL of inoculant was spotted onto 5-mm glass discs placed in 6-well tissue culture plates. Samples were incubated at room temperature for 2 h to allow cell attachment, rinsed in PBS, and then cultured in 20% BHI/0.2% glucose/0.4% NaCl in PBS for 72 h at 37° C. with shaking at 140 rpm. Biofilms were rinsed in PBS and transferred into 96-well glass-bottom plates for subsequent treatment.
(§2) Biofilms grown on glass discs were pre-treated with tGNPs or non-targeted GNPs at 70 μg/mL in PBS for 2 h (SA5120) or 1 h (PA 60-65). The 1-h pre-treatment period for PA 60-65 was selected based upon results from comparison of biofilm dispersion caused by various tGNP incubation times used in combination with laser irradiation (FIG. 10). […] After treatment, samples were analyzed using confocal microscopy, CFU assays, or scanning electron microscopy (SEM).
Biofilms on glass discs were pre-treated with tGNPs at 70 μg/mL in PBS for 2 h (SA5120) or 1 h (PA 60-65). […] Samples were incubated for 24 h at 37° C. and then analyzed using CFU assays or SEM. […]

[2] = system: planktonic P. aeruginosa PA 60-65 cultures; test: CFU assay of planktonic P. aeruginosa PA 60-65 cultures; format: cell-based, Pseudomonas aeruginosa; settings: amikacin 24 h (16-64 μg/mL)
Description: For planktonic bacteria, broth cultures of SA5120 in TSB and PA 60-65 in BHI were grown for 16-18 h at 37° C. on a shaker at 250 rpm. The cultures were diluted to an OD600 of 0.1 using TSB for SA5120 or BHI for PA 60-65 and incubated at 37° C. for ˜1.5 h to reach an OD600 of 0.3. Samples were treated with antibiotics in triplicate in 5-mL tubes at 37° C. on a shaker at 250 rpm for 24 h, after which 1 mL of culture from each tube was transferred into a fresh tube and centrifuged to pellet the cells. The cell pellets were washed twice in PBS, re-suspended in 1 mL of PBS, serially diluted in PBS, and plated in triplicate on TSA plates. The plates were incubated overnight at 37° C., and the resulting colonies were enumerated and used to calculate CFUs/mL.

MRSA SA5120 biofilms = format: cell-based, Staphylococcus aureus
Description: as §1
MRSA biofilms in 96-well glass-bottom plates or on 5-mm glass discs were pre-treated with increasing concentrations of tGNPs from 0-100 μg/mL in PBS for 2 h. This 2-h treatment duration was selected based upon results from comparison of the extent of biofilm dispersion caused by different tGNP incubation periods used in combination with laser irradiation (FIG. 9). Following the tGNP pre-treatment, unattached tGNPs were washed away using PBS, and 40 μL of PBS was added to the wells. Biofilms were then irradiated with increasing numbers of laser pulses from 0-100 pulses at 532 nm and a fluence of ˜1.0 J/cm^2 using an Nd:YAG laser system (8-ns pulse, 1 Hz; Quantel, Bozeman, Mont.) and an automated XY-gantry sample positioning system operated through LabVIEW software (National Instruments, Austin, Tex.). After exposure, samples were analyzed using confocal microscopy or colony forming unit (CFU) assays.
as §2, with “10). Following the tGNP pre-treatment, samples were rinsed using PBS, and 40 μL of PBS was added to each well. Biofilms were then exposed to 50 laser pulses at 532 nm or sham exposed as described in Supplementary Materials. Biofilms treated with 50 laser pulses alone or PBS alone (controls) were also included.” for “10).”
Biofilms on glass discs were pre-treated with tGNPs at 70 μg/mL in PBS for 2 h (SA5120) or 1 h (PA 60-65). Samples were rinsed with PBS, 40 μL of PBS was added to each well, and biofilms were then exposed to 50 laser pulses at 532 nm or sham exposed. Biofilms treated with 50 laser pulses alone or PBS alone were also included. […]

[3] = system: planktonic MRSA SA5120 cultures; test: CFU assay of planktonic MRSA SA5120 cultures; format: cell-based, Staphylococcus aureus; settings: for reduction in viability of planktonic MRSA cultures (CFU): antibiotic alone, 24 h (vancomycin 100 μg/mL)
Description: For planktonic bacteria, broth cultures of SA5120 in TSB and PA 60-65 in BHI were grown for 16-18 h at 37° C. on a shaker at 250 rpm. The cultures were diluted to an OD600 of 0.1 using TSB for SA5120 or BHI for PA 60-65 and incubated at 37° C. for ˜1.5 h to reach an OD600 of 0.3. […] The cell pellets were washed twice in PBS, re-suspended in 1 mL of PBS, serially diluted in PBS, and plated in triplicate on TSA plates. The plates were incubated overnight at 37° C., and the resulting colonies were enumerated and used to calculate CFUs/mL.

[4] = system: Staphylococcus epidermidis biofilm; settings: ns-pulsed laser non-thermal shockwaves combined with 24-h gentamicin treatment; cited from earlier work
[5] = GNP-targeted laser therapy followed by 24-h antibiotic treatment at 100 μg/mL

Molecule: NCC[C@H](O)C(=O)N[C@@H]1C[C@H](N)[C@@H](O[C@H]2O[C@H](CN)[C@@H](O)[C@H](O)[C@H]2O)[C@H](O)[C@H]1O[C@H]1O[C@H](CO)[C@@H](O)[C@H](N)[C@H]1O [amikacin]
- reduction in P. aeruginosa biofilm viability (CFU) ([1]; GNP-targeted laser therapy in combination with 8 μg/mL amikacin): 5 log
- effect of increasing amikacin from 8 to 16 μg/mL in the combination therapy ([1]; P. aeruginosa biofilms, with GNP-targeted laser therapy): did not further reduce cell viability
- reduction in P. aeruginosa biofilm viability (CFU) ([1]; amikacin alone, 8 μg/mL): ~1 log
- reduction in viability of planktonic P. aeruginosa cultures (CFU) [2]: ~4 log

Molecule: CN[C@H](CC(C)C)C(=O)N[C@H]1C(=O)N[C@@H](CC(N)=O)C(=O)N[C@H]2C(=O)N[C@H]3C(=O)N[C@H](C(=O)N[C@H](C(=O)O)c4cc(O)cc(O)c4-c4cc3ccc4O)[C@H](O)c3ccc(c(Cl)c3)Oc3cc2cc(c3O[C@@H]2O[C@H](CO)[C@@H](O)[C@H](O)[C@H]2O[C@H]2C[C@](C)(N)[C@H](O)[C@H](C)O2)Oc2ccc(cc2Cl)[C@H]1O [vancomycin, Vancomycin]
- effect of GNP-targeted laser therapy on antibacterial activity of vancomycin against MRSA biofilms (MRSA SA5120 biofilms; 24-h vancomycin at 100 or 1000 μg/mL): enhanced the antibacterial activity
- reduction in MRSA biofilm viability (CFU) (MRSA SA5120 biofilms; [5]): 2 log
- reduction in viability of planktonic MRSA cultures (CFU) [3]: 4 log and ~3 log

Molecule: gentamicin
- reduction in MRSA biofilm viability (CFU) (MRSA SA5120 biofilms; [5]): 4 log
- reduction in viable bacteria in MRSA biofilms (MRSA SA5120 biofilms; GNP-targeted laser therapy followed by 24-h gentamicin at 100 μg/mL): 99.99%
- reduction in MRSA biofilm viability (CFU) (MRSA SA5120 biofilms; antibiotic alone, 100 μg/mL, 24 h): 1 log
- reduction in Staphylococcus epidermidis biofilm viability [4]: 1 log
- reduction in viability of planktonic MRSA cultures (CFU) [3]: ~4 log

B1: papain: enzyme used to loosen S. aureus biofilms prior to CFU assay (protein, UniProt P00784 134-345, looked up)
Papain: IPEYVDWRQKGAVTPVKNQGSCGSCWAFSAVVTIEGIIKIRTGNLNEYSEQELLDCDRRSYGCNGGYPWSALQLVAQYGIHYRNTYPYEGVQRYCRSREKGPYAAKTDGVRQVQPYNEGALLYSIANQPVSVVLEAAGKDFQLYRGGIFVGPCGNKVDHAVAAVGYGPNYILIKNSWGTGWGENGYIRIKRGTGNSYGVCGLYTSSFYPVKN
- viability of planktonic MRSA cultures ([3]; 100 μg/mL papain, 2 or 4 h at 37° C.): no reduction in cell viability
